{"source": "the supplement of paper PMC10307832", "assay_in_all_cases": "relative viability (nuclei count vs DMSO), 5 days (fraction); higher = more cells survive", "key": {"Cediranib + Tozasertib": {"compound": "COc1cc2c(Oc3ccc4[nH]c(C)cc4c3F)ncnc2cc1OCCCN1CCCC1 [Cediranib] + Cc1cc(Nc2cc(N3CCN(C)CC3)nc(Sc3ccc(NC(=O)C4CC4)cc3)n2)n[nH]1 [Tozasertib] (partner 0.1 µM)", "outline": "(§1)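 Medians of duplicate plates are given as relative viability. That measure is the nuclei count in treated wells divided by the count in vehicle wells. Counts were taken on 4× images of lung cancer cell lines in 1536-well plates, 5 days after pin-tool dosing the day after seeding with one drug alone or a fixed anchor-drug dose plus five library-drug doses (not always all listed) in √10 steps.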"}, "[1]": {"compound": "O=C(C[C@H]1NCCC[C@@H]1O)Cn1cnc2cc(Br)c(Cl)cc2c1=O (racemic) [Halofuginone] + CCNC(=O)c1noc(-c2cc(C(C)C)c(O)cc2O)c1-c1ccc(CN2CCOCC2)cc1 [Luminespib] (partner 0.01 µM)", "outline": "as §1"}, "[2]": {"compound": "O=C(C[C@H]1NCCC[C@@H]1O)Cn1cnc2cc(Br)c(Cl)cc2c1=O (racemic) [Halofuginone] + C[C@@H](Oc1cc(-c2cnn(C3CCNCC3)c2)cnc1N)c1c(Cl)ccc(F)c1Cl [Crizotinib] (partner 1 µM)", "outline": "as §1"}, "Halofuginone + Olaparib": {"compound": "O=C(C[C@H]1NCCC[C@@H]1O)Cn1cnc2cc(Br)c(Cl)cc2c1=O (racemic) [Halofuginone] + O=C(c1cc(Cc2n[nH]c(=O)c3ccccc23)ccc1F)N1CCN(C(=O)C2CC2)CC1 [Olaparib] (partner 8 µM)", "outline": "as §1"}}}
{"cell line": "UMC-11", "values": [{"measurement": "relative viability", "setting": "Cediranib + Tozasertib; first compound 0.04 µM", "result": 0.213}, {"measurement": "relative viability", "setting": "Cediranib + Tozasertib; first compound 0.4 µM", "result": 0.201}, {"measurement": "relative viability", "setting": "Cediranib + Tozasertib; first compound 4 µM", "result": 0.2}, {"measurement": "relative viability", "setting": "[1]; first compound 0.001 µM", "result": 1.08}, {"measurement": "relative viability", "setting": "[1]; first compound 0.003162 µM", "result": 1.05}, {"measurement": "relative viability", "setting": "[1]; first compound 0.01 µM", "result": 1.02}, {"measurement": "relative viability", "setting": "[1]; first compound 0.03162 µM", "result": 0.703}, {"measurement": "relative viability", "setting": "[1]; first compound 0.1 µM", "result": 0.412}, {"measurement": "relative viability", "setting": "[2]; first compound 0.001 µM", "result": 0.66}, {"measurement": "relative viability", "setting": "[2]; first compound 0.003162 µM", "result": 0.558}, {"measurement": "relative viability", "setting": "[2]; first compound 0.01 µM", "result": 0.575}, {"measurement": "relative viability", "setting": "[2]; first compound 0.03162 µM", "result": 0.534}, {"measurement": "relative viability", "setting": "[2]; first compound 0.1 µM", "result": 0.215}, {"measurement": "relative viability", "setting": "Halofuginone + Olaparib; first compound 0.001 µM", "result": 0.426}, {"measurement": "relative viability", "setting": "Halofuginone + Olaparib; first compound 0.003162 µM", "result": 0.381}, {"measurement": "relative viability", "setting": "Halofuginone + Olaparib; first compound 0.01 µM", "result": 0.566}, {"measurement": "relative viability", "setting": "Halofuginone + Olaparib; first compound 0.03162 µM", "result": 0.471}, {"measurement": "relative viability", "setting": "Halofuginone + Olaparib; first compound 0.1 µM", "result": 0.226}]}
